# Values quoted from earlier work in paper PMC2217447 (The Journal of General Physiology, 2004).
# Entries after “also recorded” stand apart in the source; their conditions may differ. Where two headings read alike, the source gives them in different places.
# Assays:
# Shaker B K^+ channels [1] = target: T1, Shaker B K^+ channels (Drosophila melanogaster, UniProt P08510); conditions: external TEA, ref Gómez-Lagunas, 1997
# Shaker B K^+ channels [2] = target: T1, Shaker B K^+ channels; conditions: for effect of external K^+ on block of Shaker (in words): ref Goldstein and Miller, 1993
# T1 sequence (P08510 whole entry): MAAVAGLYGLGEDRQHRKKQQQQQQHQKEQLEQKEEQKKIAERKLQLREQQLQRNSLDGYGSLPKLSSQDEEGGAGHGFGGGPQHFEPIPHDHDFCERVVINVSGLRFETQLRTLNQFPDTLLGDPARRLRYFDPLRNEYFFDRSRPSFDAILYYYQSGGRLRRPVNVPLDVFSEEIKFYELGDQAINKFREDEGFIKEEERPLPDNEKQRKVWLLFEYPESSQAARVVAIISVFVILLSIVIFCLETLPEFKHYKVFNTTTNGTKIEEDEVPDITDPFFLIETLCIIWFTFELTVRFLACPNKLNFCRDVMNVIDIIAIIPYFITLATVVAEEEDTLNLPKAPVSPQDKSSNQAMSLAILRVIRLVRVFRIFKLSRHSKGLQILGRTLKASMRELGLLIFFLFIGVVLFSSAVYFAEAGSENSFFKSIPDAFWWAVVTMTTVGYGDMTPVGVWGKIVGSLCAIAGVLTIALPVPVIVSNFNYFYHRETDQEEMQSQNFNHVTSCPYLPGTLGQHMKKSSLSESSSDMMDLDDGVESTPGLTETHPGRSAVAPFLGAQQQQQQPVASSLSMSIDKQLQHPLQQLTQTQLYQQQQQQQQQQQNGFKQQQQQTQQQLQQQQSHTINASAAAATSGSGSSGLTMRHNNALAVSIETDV
compound,measurement,setting,value
"CC[N+](CC)(CC)CC [TEAo, tetraethylammonium]",change of binding affinity in 0 K^+ (in words),Shaker B K^+ channels [1]; Shaker channels,did not find a significant change in the binding affinity
same,affinity (Kd) for inhibiting drop of GK vs block of IK (in words),Shaker B K^+ channels [1],basically the same affinity (Kd) with which it blocks the K^+ current (IK)
same,effect on collapse of GK in 0 K^+ (in words),Shaker B K^+ channels [1],impedes the drop of GK in 0 K^+; also recorded: impedes the collapse of GK
same,effect on collapse of GK in 0 K^+ (in words),Shaker B K^+ channels [1]; listed as TEA,the collapse of GK is prevented
Agitoxin2 [AgTx2],effect of external K^+ on binding to Shaker (in words),"Shaker B K^+ channels [2]; ref Ranganathan et al., 1996",destabilized by Ko ^+ ions
ChTx R25Q: mutant R25Q (a glutamine substituting arginine in position 25) of ChTx,effect of external K^+ on block of Shaker (in words),Shaker B K^+ channels [2],destabilized by Ko ^+ ions; also recorded: decreased by Ko ^+
Charybdotoxin [ChTx],effect of external K^+ on block of Shaker (in words),Shaker B K^+ channels [2],not altered by external K^+ ions; also recorded: not destabilized by Ko ^+
